Measured values as given in patent US20040259948A1, “Reciprocal regulation of inflammation and lipid metabolism by liver X receptors” (priority 2003, published 2004).

Key:
[1] = molecular target: T1, LXRα/RXRα (Homo sapiens, UniProt Q13133); experiment: Luciferase reporter transfection in RAW 264.7 cells, LXRα/RXRα; type: cell-based; details: 2 μM
T1 construct: expressed in transfected cells; host or cells: RAW 264.7
T1 sequence (Q13133 1-447): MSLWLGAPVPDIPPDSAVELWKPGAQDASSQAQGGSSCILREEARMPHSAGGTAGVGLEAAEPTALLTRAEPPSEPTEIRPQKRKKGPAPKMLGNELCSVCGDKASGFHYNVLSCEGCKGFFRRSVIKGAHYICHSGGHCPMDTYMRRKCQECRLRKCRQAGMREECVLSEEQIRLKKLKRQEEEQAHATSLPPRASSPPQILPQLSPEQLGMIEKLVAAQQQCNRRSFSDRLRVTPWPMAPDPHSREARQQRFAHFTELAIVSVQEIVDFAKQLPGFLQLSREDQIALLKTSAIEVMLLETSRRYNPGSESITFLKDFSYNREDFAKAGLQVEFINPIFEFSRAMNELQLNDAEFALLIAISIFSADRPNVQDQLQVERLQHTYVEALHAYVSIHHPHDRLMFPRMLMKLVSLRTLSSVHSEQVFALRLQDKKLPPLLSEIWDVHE
T1 sequence (P19793 1-462 partner): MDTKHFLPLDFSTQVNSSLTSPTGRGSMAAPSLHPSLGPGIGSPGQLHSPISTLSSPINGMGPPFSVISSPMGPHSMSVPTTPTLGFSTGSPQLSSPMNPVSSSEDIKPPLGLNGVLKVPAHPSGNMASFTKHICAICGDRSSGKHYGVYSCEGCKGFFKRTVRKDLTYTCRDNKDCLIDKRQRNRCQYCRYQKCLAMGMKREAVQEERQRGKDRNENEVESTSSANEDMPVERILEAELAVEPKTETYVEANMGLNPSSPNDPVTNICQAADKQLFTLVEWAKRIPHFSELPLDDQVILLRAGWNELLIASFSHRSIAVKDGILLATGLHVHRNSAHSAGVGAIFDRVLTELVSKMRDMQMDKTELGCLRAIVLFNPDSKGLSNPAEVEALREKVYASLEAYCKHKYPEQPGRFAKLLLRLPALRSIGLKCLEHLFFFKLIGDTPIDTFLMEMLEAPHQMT
Description: (§1) We next investigated the mechanism by which LXR inhibits iNOS and COX-2 expression. […] RAW 264.7 cells were transfected with expression vectors for either LXRα/RXRα or LXRβ/RXRα along with luciferase reporter constructs. The LXR agonist inhibited expression of both iNOS and COX-2 gene promoters in a receptor-dependent fashion (FIG. 4 A and B). […] E, A dominant-negative IKK expression vector (IKK DN) blocks LXR-dependent repression of the COX-2 promoter. Transfected cells were treated with DMSO (ctrl), GW3965 (GW), LPS, or GW3965 and LPS. […] RAW 264.7 cells were transiently transfected with expression vectors for LXRα/RXRα, LXRβ/RXRα or dominant-negative I kappa B kinase (IKK) along with iNOS (A), COX-2 (B, E, F), NF-κB (C), AP-1 (D) or COX-2/NF-κB mutant (F) luciferase reporters. […] As activation of iNOS and COX-2 gene promoters by LPS is known to depend on interactions between AP-1 and NF-κB transcription factors, the effect of LXR on minimal promoters containing binding sites for these factors was evaluated. […] Moreover, the inhibitory effect of LXR on the COX-2 promoter was lost when NF-κB activity was blocked by transfection of a dominant-negative IKK or when binding sites for NF-κB were mutated (FIGS. 4E and F). These observations indicate that inhibition of inflammatory gene expression by LXR ligands involves antagonism of NF-κB signaling.
(§2) Reagents and plasmids. […] Oxysterols, LDL and ox-LDL were from Sigma and Intracell, respectively. LPS from Salmonella typhimurium was from Sigma. Expression plasmids for LXRα, LXRβ and IKK-DN (Castrillo, A. et al. 2001 J Biol Chem 276:15854-15860; Laffitte, B. A. et al. 2001 Mol Cell Biol 21:7558-7568), and reporter plasmids for NOS-2, (NFκB)3-LUC, (AP-1)4-LUC and COX-2 have been described (Callejas, N. A. et al. 2000 Gastroenterology 119:493-501).
Cell culture and transfections. Thioglycolate-elicited peritoneal macrophages were cultured in RPMI containing 10% fetal bovine serum (FBS). RAW 264.7 cells were cultured in DMEM containing 10% FBS. For ligand treatments, cells were in cultured medium supplemented with 5% lipoprotein-deficient serum (LPDS) and ligands for 18 h before stimulation. Bacterial infection in vitro was performed as described (Chen, L. M. et al. 1996 Mol Microbiol 21:1101-1115). Transient transfections of RAW 264.7 cells were performed in triplicate in 48-well plates using Superfect reagent (Life Technologies). After transfection, cells were incubated in medium containing 10% LPDS and the indicated ligands for 18 h before stimulation with LPS for an additional 18 h. Luciferase activity was normalized to β-galactosidase activity. NO production was determined spectrophotometrically (Castrillo, A. et al. 2000 Mol Cell Biol 20:1692-1698).

[2] = molecular target: T2, LXRβ/RXRα (Homo sapiens, UniProt P55055); experiment: Luciferase reporter transfection in RAW 264.7 cells, LXRβ/RXRα; type: cell-based; details: 2 μM
T2 construct: expressed in transfected cells; host or cells: RAW 264.7
T2 sequence (P55055 1-460): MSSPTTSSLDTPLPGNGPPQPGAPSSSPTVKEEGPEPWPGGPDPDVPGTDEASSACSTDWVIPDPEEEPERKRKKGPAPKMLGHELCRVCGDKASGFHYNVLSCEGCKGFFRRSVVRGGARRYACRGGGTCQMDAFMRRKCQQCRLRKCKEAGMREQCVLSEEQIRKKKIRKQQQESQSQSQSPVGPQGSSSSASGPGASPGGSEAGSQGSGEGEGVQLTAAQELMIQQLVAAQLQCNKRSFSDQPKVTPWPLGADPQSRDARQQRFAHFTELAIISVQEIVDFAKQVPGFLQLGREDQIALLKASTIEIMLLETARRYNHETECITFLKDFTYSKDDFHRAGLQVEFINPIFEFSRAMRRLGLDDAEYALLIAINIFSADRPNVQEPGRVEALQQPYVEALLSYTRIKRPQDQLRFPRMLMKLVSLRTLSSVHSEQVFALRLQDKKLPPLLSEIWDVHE
T2 sequence (P19793 1-462 partner): T1 sequence (P19793 1-462 partner)
Description: as §1, §2
Cell culture and transfections. Thioglycolate-elicited peritoneal macrophages were cultured in RPMI containing 10% fetal bovine serum (FBS). […] NO production was determined spectrophotometrically (Castrillo, A. et al. 2000 Mol Cell Biol 20:1692-1698).

[3] = test system: Thioglycolate-elicited peritoneal macrophages; experiment: Macrophage response to E. coli infection: iNOS mRNA and NO production; type: cell-based, murine; details: 18 h, pretreated with 1 μM ligand
Description: Thioglycolate-elicited peritoneal macrophages were infected in vitro with Escherichia coli. After 18 hours, expression of inducible nitric oxide synthase (iNOS) mRNA and nitric oxide (NO) production were assessed. […] Cells were then infected with E. coli (A, B) or treated with 100 ng/ml LPS(C, D, E) as indicated. After 18 h, NO production was determined using a colorimetric assay (A, D), or mRNA levels were determined using real-time quantitative PCR assays (B, C, E).
Thioglycolate-elicited peritoneal macrophages were cultured in RPMI containing 10% fetal bovine serum (FBS). […] For ligand treatments, cells were in cultured medium supplemented with 5% lipoprotein-deficient serum (LPDS) and ligands for 18 h before stimulation. […] NO production was determined spectrophotometrically (Castrillo, A. et al. 2000 Mol Cell Biol 20:1692-1698).
Total RNA was extracted using Trizol reagent (Life Technologies, Inc.). […] Real-time quantitative PCR (TaqMan) analysis was performed using an Applied Biosystems 7700 sequence detector.

With O=C(O)Cc1cccc(OCCCN(Cc2cccc(C(F)(F)F)c2Cl)CC(c2ccccc2)c2ccccc2)c1 [GW3965] the “induction of the COX-2 promoter by LPS (luciferase reporter)” value [1] was “inhibits induction”, the “induction of the iNOS promoter by LPS (luciferase reporter)” value [1] was “inhibits induction” and the “luciferase reporter containing multiple NF-κB binding sites” value ([1]; LPS) was “inhibits expression”. The “COX-2 luciferase reporter lacking the NF-κB binding site” value ([1]; LPS, COX-2/NF-κB mutant) was “fails to inhibit”, the “inhibitory effect on the COX-2 promoter with dominant-negative IKK” value ([1]; LPS, IKK-DN co-transfected, LXR vector not specified) was “lost” and the “induction of the COX-2 promoter by LPS (luciferase reporter)” value [2] was “inhibits induction”. The “induction of the iNOS promoter by LPS (luciferase reporter)” value [2] was “inhibits induction”, the “luciferase reporter containing multiple NF-κB binding sites” value ([2]; LPS) was “inhibits expression” and the “iNOS activity (NO / nitrite production)” value ([3]; colorimetric assay) was “reduced”. For the same molecule, the “iNOS mRNA” value ([3]; real-time quantitative PCR) was “significantly reduced”.
